Several values for one entry are separate records, joined by “and”; a condition that tells them apart may be missing. Equal values may be shown once. Inconclusive results and toxic doses are left out. The calls were made as follows: active = survival T/C of 150% or more; inactive = T/C below 125% in these data.
Tested on: P388 leukemia ip, CD2F1 mice, survival T/C
Test: NCI In Vivo Anticancer Drug Screen. Data for tumor model P388 Leukemia (intraperitoneal) in CD2F1 (CDF1) mice
Conditions: endpoint: median survival time, higher = longer survival
Summary of the method: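 Mice carrying the transplanted tumor received test compound or vehicle. Survival was recorded in each group, and the value is the treated-group measurement divided by that of the vehicle-treated control group.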

[1] = dose: 60.0 mg/kg/injection, schedule: Q01DX005 (ip), vehicle: saline with Tween-80
[2] = dose: 120.0 mg/kg/injection, schedule: Q01DX005 (ip), vehicle: saline with Tween-80
[3] = dose: 240.0 mg/kg/injection, schedule: Q01DX005 (ip), vehicle: saline with Tween-80
[4] = dose: 50.0 mg/kg/injection, schedule: Q01DX009 (ip), vehicle: Klucel (hydroxypropylcellulose) (HPC)

Measured: T/C

N#Cc1c2c(c(=O)n3c1[nH]c1ccccc13)CCC2
inactive: [1] 100 % of control | [2] 93 % of control | [3] 94 % of control

O=C1Nc2ccccc2/C1=N/N=C/c1ccccc1O
inactive: [4] 91 % of control | dose: 100.0 mg/kg/injection, schedule: Q01DX009 (ip), vehicle: Klucel (hydroxypropylcellulose) (HPC) 86 % of control

Cc1nn(C(=O)c2ccncc2)c(C)c1N=Nc1nc2ccc([N+](=O)[O-])cc2s1
inactive: dose: 100.0 mg/kg/injection, schedule: Q04DX002 (ip), vehicle: saline with Tween-80 97 % of control | dose: 200.0 mg/kg/injection, schedule: Q04DX002 (ip), vehicle: saline with Tween-80 94 % of control

O=C(/C=C/c1c[nH]c2ccccc12)c1ccccc1[N+](=O)[O-]
inactive: [1] 94 % of control | [2] 90 % of control

COC1OC(C(C)Br)C2OC(C)(C)OC12 (centres undefined)
inactive: [1] 105 % of control | [2] 102 % of control | [3] 107 % of control

O=C(O)CC1CC=CCC1CC(=O)O (centres undefined)
inactive: dose: 100.0 mg/kg/injection, schedule: Q01DX001 (ip), vehicle: saline sonified 100 % of control | dose: 200.0 mg/kg/injection, schedule: Q01DX001 (ip), vehicle: saline sonified 100 % of control | dose: 400.0 mg/kg/injection, schedule: Q01DX001 (ip), vehicle: saline sonified 105 % of control

S=c1nc[nH]c2nc[nH]c12
inactive: dose: 9.38 mg/kg/injection, schedule: Q01DX009 (ip), vehicle: alkali diluted with saline 111 % of control | dose: 18.8 mg/kg/injection, schedule: Q01DX009 (ip), vehicle: alkali diluted with saline 105 % of control | dose: 20.0 mg/kg/injection, schedule: Q01DX005 (ip), vehicle: alkali diluted with saline 110 % of control | dose: 20.0 mg/kg/injection, schedule: Q01DX005 (ip), vehicle: other 108 % of control and 92 % of control | dose: 20.0 mg/kg/injection, schedule: Q01DX009 (ip), vehicle: alkali diluted with saline 95 % of control | dose: 20.0 mg/kg/injection, schedule: Q01DX009 (ip), vehicle: alkali diluted with water 118 % of control | dose: 20.0 mg/kg/injection, schedule: Q04DX003 (ip), vehicle: other 110 % of control | dose: 20.0 mg/kg/injection, schedule: Q04DX003 (iv), vehicle: other 116 % of control | dose: 25.0 mg/kg/injection, schedule: Q01DX005 (ip), vehicle: alkali diluted with saline 105 % of control | dose: 25.0 mg/kg/injection, schedule: Q01DX005 (ip), vehicle: alkali diluted with water 100 % of control | dose: 25.0 mg/kg/injection, schedule: Q01DX009 (ip), vehicle: Klucel (hydroxypropylcellulose) (HPC) 115 % of control | dose: 28.13 mg/kg/injection, schedule: Q04DX003 (ip), vehicle: alkali diluted with saline 105 % of control | dose: 37.5 mg/kg/injection, schedule: Q01DX009 (ip), vehicle: alkali diluted with saline 110 % of control | dose: 37.5 mg/kg/injection, schedule: Q04DX003 (ip), vehicle: Klucel (hydroxypropylcellulose) (HPC) 121 % of control | dose: 40.0 mg/kg/injection, schedule: Q01DX001 (ip), vehicle: other 111 % of control | dose: 40.0 mg/kg/injection, schedule: Q01DX001 (iv), vehicle: other 100 % of control | dose: 40.0 mg/kg/injection, schedule: Q01DX005 (ip), vehicle: alkali diluted with saline 119 % of control | dose: 40.0 mg/kg/injection, schedule: Q01DX005 (ip), vehicle: other 107 % of control and 119 % of control | dose: 40.0 mg/kg/injection, schedule: Q01DX009 (ip), vehicle: alkali diluted with saline 101 % of control and 105 % of control and 97 % of control | dose: 40.0 mg/kg/injection, schedule: Q01DX009 (ip), vehicle: alkali diluted with water 86 % of control | dose: 40.0 mg/kg/injection, schedule: Q04DX003 (ip), vehicle: other 117 % of control | dose: 40.0 mg/kg/injection, schedule: Q04DX003 (iv), vehicle: other 99 % of control | dose: 50.0 mg/kg/injection, schedule: Q01DX005 (ip), vehicle: alkali diluted with saline 113 % of control | dose: 50.0 mg/kg/injection, schedule: Q01DX005 (ip), vehicle: alkali diluted with water 111 % of control | dose: 50.0 mg/kg/injection, schedule: Q01DX005 (ip), vehicle: saline 105 % of control | [4] 123 % of control | dose: 50.0 mg/kg/injection, schedule: Q01DX009 (ip), vehicle: alkali diluted with saline 99 % of control and 104 % of control | dose: 56.25 mg/kg/injection, schedule: Q04DX003 (ip), vehicle: alkali diluted with saline 99 % of control | dose: 60.0 mg/kg/injection, schedule: Q01DX009 (ip), vehicle: alkali diluted with saline 102 % of control and 113 % of control | dose: 75.0 mg/kg/injection, schedule: Q01DX009 (ip), vehicle: alkali diluted with saline 117 % of control | dose: 75.0 mg/kg/injection, schedule: Q04DX003 (ip), vehicle: Klucel (hydroxypropylcellulose) (HPC) 117 % of control | dose: 80.0 mg/kg/injection, schedule: Q01DX001 (iv), vehicle: other 103 % of control | dose: 80.0 mg/kg/injection, schedule: Q01DX005 (ip), vehicle: alkali diluted with saline 120 % of control | dose: 80.0 mg/kg/injection, schedule: Q01DX005 (ip), vehicle: other 95 % of control | dose: 80.0 mg/kg/injection, schedule: Q01DX009 (ip), vehicle: alkali diluted with saline 95 % of control | dose: 80.0 mg/kg/injection, schedule: Q04DX003 (iv), vehicle: other 104 % of control | dose: 100.0 mg/kg/injection, schedule: Q01DX005 (ip), vehicle: alkali diluted with saline 105 % of control | dose: 100.0 mg/kg/injection, schedule: Q01DX005 (ip), vehicle: alkali diluted with water 105 % of control | dose: 100.0 mg/kg/injection, schedule: Q01DX005 (ip), vehicle: saline 102 % of control and 108 % of control | dose: 112.5 mg/kg/injection, schedule: Q04DX003 (ip), vehicle: alkali diluted with saline 107 % of control | dose: 150.0 mg/kg/injection, schedule: Q01DX001 (ip), vehicle: alkali diluted with saline 101 % of control and 107 % of control | dose: 160.0 mg/kg/injection, schedule: Q01DX001 (iv), vehicle: other 103 % of control | dose: 160.0 mg/kg/injection, schedule: Q01DX005 (ip), vehicle: other 108 % of control and 112 % of control | dose: 160.0 mg/kg/injection, schedule: Q01DX009 (ip), vehicle: alkali diluted with saline 106 % of control | dose: 200.0 mg/kg/injection, schedule: Q01DX001 (ip), vehicle: alkali diluted with saline 108 % of control and 111 % of control | dose: 200.0 mg/kg/injection, schedule: Q01DX005 (ip), vehicle: alkali diluted with water 86 % of control | dose: 200.0 mg/kg/injection, schedule: Q01DX005 (ip), vehicle: saline 100 % of control and 115 % of control and 124 % of control | dose: 225.0 mg/kg/injection, schedule: Q04DX003 (ip), vehicle: alkali diluted with saline 98 % of control | dose: 250.0 mg/kg/injection, schedule: Q01DX001 (ip), vehicle: alkali diluted with saline 107 % of control | dose: 250.0 mg/kg/injection, schedule: Q01DX001 (ip), vehicle: saline 102 % of control | dose: 300.0 mg/kg/injection, schedule: Q01DX001 (ip), vehicle: alkali diluted with saline 112 % of control | dose: 320.0 mg/kg/injection, schedule: Q01DX001 (ip), vehicle: other 100 % of control | dose: 320.0 mg/kg/injection, schedule: Q01DX001 (iv), vehicle: other 108 % of control | dose: 320.0 mg/kg/injection, schedule: Q04DX003 (iv), vehicle: other 100 % of control | dose: 400.0 mg/kg/injection, schedule: Q01DX005 (ip), vehicle: saline 89 % of control | dose: 400.0 mg/kg/injection, schedule: Q01DX009 (ip), vehicle: Klucel (hydroxypropylcellulose) (HPC) 115 % of control | dose: 500.0 mg/kg/injection, schedule: Q01DX001 (ip), vehicle: saline 104 % of control | dose: 640.0 mg/kg/injection, schedule: Q01DX001 (iv), vehicle: other 105 % of control | dose: 1000.0 mg/kg/injection, schedule: Q01DX001 (ip), vehicle: saline 99 % of control

From PubChem BioAssay AID330 (DTP/NCI, 2004)
